Data as given in ChEMBL document CHEMBL1201862, “PubChem BioAssay data set” (2004).
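Exposure lasted 48 hours, with cells grown in 96-well plates and compounds tested at five concentrations. GI50: concentration for 50% inhibition of growth.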 Activity calls are given as the source filed them. Cut-off read from the data, not from the text of the source: active = GI50 up to about 1.1 µM and inactive = higher.

Assays:
Test in all cases: NCI tumour cell line growth inhibition, 48 h
[1] = system: M14
[2] = system: CAKI-1
[3] = system: COLO 205
[4] = system: HCC 2998
[5] = system: T47D
[6] = system: UO-31
[7] = system: TK-10
[8] = system: SR
[9] = system: K562
[10] = system: IGROV-1
[11] = system: EKVX
[12] = system: NCI/ADR-RES
[13] = system: HCT-15
[14] = system: NCI-H226
[15] = system: SF-295
[16] = system: MDA-MB-435
[17] = system: BT-549
[18] = system: SNB-75
[19] = system: LOX IMVI

Structure (SMILES)	GI50 [1]	GI50 [2]	GI50 [3]	GI50 [4]	GI50 [5]	GI50 [6]	GI50 [7]	GI50 [8]	GI50 [9]	GI50 [10]	GI50 [11]	GI50 [12]	GI50 [13]	GI50 [14]	GI50 [15]	GI50 [16]	GI50 [17]	GI50 [18]	GI50 [19]
CC1Oc2cc3c(-c4c(O)cc(O)c5c(O)c6c(cc45)OC(C)C(C)C6=O)c(O)cc(O)c3c(O)c2C(=O)C1C (centres undefined)	0.226 µM (active)	0.231 µM (active)	0.17 µM (active)	0.281 µM (active)	0.259 µM (active)	0.213 µM (active)	0.27 µM (active)	0.054 µM (active)	0.0526 µM (active)	0.0574 µM (active)	0.116 µM (active)	0.162 µM (active)	0.0474 µM	0.0871 µM (active)	0.061 µM (active)	0.24 µM (active)	0.0605 µM (active)	0.0675 µM (active)	
Cc1cc(=O)c2ccccc2n1CCCCCCCCCCn1c(C)cc(=O)c2ccccc21	34.9 µM (inactive)	21.6 µM (inactive)	21.9 µM (inactive)	11.8 µM (inactive)	16.3 µM (inactive)	12 µM (inactive)	14.1 µM (inactive)	13.2 µM (inactive)	4.68 µM (inactive)	17.2 µM (inactive)	11.7 µM (inactive)	16.6 µM (inactive)	31.3 µM	20.5 µM (inactive)	> 10 µM (inactive)	14.8 µM (inactive)	11 µM (inactive)	30.2 µM (inactive)	5.53 µM (inactive)
CN(C)CCCNC(=O)c1cc(NS(=O)(=O)c2ccc3c(c2)C(=O)c2ccccc2C3=O)cn1C	22.3 µM (inactive)	67.6 µM (inactive)	23.6 µM (inactive)	24.5 µM (inactive)	35.2 µM (inactive)	56.4 µM (inactive)	25.2 µM (inactive)	21.9 µM (inactive)	30 µM (inactive)	33 µM (inactive)	> 100 µM (inactive)	> 100 µM (inactive)	42.8 µM	22.9 µM (inactive)	31.3 µM (inactive)	25.4 µM (inactive)	24.5 µM (inactive)	30.8 µM (inactive)	13.8 µM (inactive)
COC(=O)/C(C#N)=C/c1cc(C(C)(C)C)c(O)c(C(C)(C)C)c1	3.12 µM (inactive)	2.89 µM (inactive)	1.44 µM (inactive)	2.7 µM (inactive)	0.83 µM (active)	2.17 µM (inactive)	3.24 µM (inactive)	0.904 µM (active)	2.59 µM (inactive)	4.55 µM (inactive)	2.33 µM (inactive)	1.11 µM (active)	2.67 µM	1.96 µM (inactive)	1.74 µM (inactive)	3.21 µM (inactive)	2.77 µM (inactive)	3.3 µM (inactive)	3.95 µM (inactive)
CC(C)(C(=O)NN)c1ccccc1	> 100 µM (inactive)	> 100 µM (inactive)	> 100 µM (inactive)	> 100 µM (inactive)	> 100 µM (inactive)	76.6 µM (inactive)	> 100 µM (inactive)	> 100 µM (inactive)	> 100 µM (inactive)	8.79 µM (inactive)	34.6 µM (inactive)	> 100 µM (inactive)	> 100 µM		33.7 µM (inactive)	86.5 µM (inactive)	> 100 µM (inactive)	> 100 µM (inactive)	7.91 µM (inactive)
O=C1CC(=O)c2c(Cl)sc(Cl)c21	> 100 µM (inactive)	> 100 µM (inactive)	> 100 µM (inactive)		> 100 µM (inactive)	> 100 µM (inactive)	> 100 µM (inactive)	25.6 µM (inactive)	40.9 µM (inactive)	> 100 µM (inactive)	> 100 µM (inactive)	> 100 µM (inactive)	64.4 µM	86.1 µM (inactive)	> 100 µM (inactive)	64.1 µM (inactive)	> 100 µM (inactive)	> 100 µM (inactive)	52.8 µM (inactive)
COC(=O)/C(=N\NC(N)=O)C(C(=O)C(=O)Nc1ccccc1OC)c1nc2ccc([N+](=O)[O-])cc2nc1O (centres undefined)	> 100 µM (inactive)	> 100 µM (inactive)		> 100 µM (inactive)	> 100 µM (inactive)	> 100 µM (inactive)	> 100 µM (inactive)	> 100 µM (inactive)	30 µM (inactive)	53.1 µM (inactive)	> 100 µM (inactive)	> 100 µM (inactive)	> 100 µM	> 100 µM (inactive)	> 100 µM (inactive)	44.3 µM (inactive)	> 100 µM (inactive)	> 100 µM (inactive)	> 100 µM (inactive)
